Source: US20230103250A1, “DRUG SUBSTANCE OF L[…] MEDICINAL COMPOSITION COMPRISING SAME” (Eisai R&D Management Co., Ltd., priority 2020, published 2023)

Test: Particle size (D90) of lemborexant active pharmaceutical ingredient by laser diffraction/scattering
Format: physicochemical
Conditions: for Particle size (D90 (μm)): pulverized lemborexant API lots, Table 1; for D90 (μm): after pulverization with 160UPZ (Example 1, Table 2), Microtrack MT3300EXII
Method: The particle size of the granular material, which is a lemborexant active pharmaceutical ingredient, can be measured by a laser diffraction/scattering method.
A sample suspension is prepared by dispersing about 30 mg of a lemborexant active pharmaceutical ingredient in 50 mL of a 0.1% polysorbate 20 aqueous solution as a dispersion solvent. The sample suspension is put into a diffractometer and an appropriate amount of dispersion solvent is added. The particle size distribution of the sample suspension is measured, and the value of the particle size of the sample is recorded as a cumulative diameter distribution.
Particle size distribution measurement conditions for the diffractometer may be as follows.
Number of measurements: 3 times
Measurement time: 30 seconds
Transparency: Transparent
Particle refractive index: 1.81
Solvent refractive index: 1.33
The 90% cumulative diameter (D90) was measured with a particle size analyzer (Microtrack MT3300EXII). A sample suspension was prepared by dispersing about 30 mg of a lemborexant active pharmaceutical ingredient in 50 mL of a dispersion solvent 0.1% polysorbate 20 aqueous solution. The sample suspension was put into a particle size analyzer, and an appropriate amount of a dispersion solvent was added thereto. The particle size distribution of the sample suspension was measured, and the value of the particle size of the sample was recorded as a cumulative diameter distribution.
The measurement conditions for the particle size analyzer are as follows.
Flow rate: 50% Number of measurements: 3 times Measurement time: 30 seconds
Particle refractive index: 1.81 Solvent refractive index: 1.33

Cc1ncc(OC[C@@]2(c3cccc(F)c3)C[C@H]2C(=O)Nc2ccc(F)cn2)c(C)n1 [Lot 1]
Particle size (D90 (μm)) (listed as 1): 47 μm

Cc1ncc(OC[C@@]2(c3cccc(F)c3)C[C@H]2C(=O)Nc2ccc(F)cn2)c(C)n1 [Lot 2]
Particle size (D90 (μm)) (listed as 2): 18 μm

Cc1ncc(OC[C@@]2(c3cccc(F)c3)C[C@H]2C(=O)Nc2ccc(F)cn2)c(C)n1 [Lot 3]
Particle size (D90 (μm)) (listed as 3): 48 μm

Cc1ncc(OC[C@@]2(c3cccc(F)c3)C[C@H]2C(=O)Nc2ccc(F)cn2)c(C)n1 [Lot 4]
Particle size (D90 (μm)) (listed as 4): 32 μm

Cc1ncc(OC[C@@]2(c3cccc(F)c3)C[C@H]2C(=O)Nc2ccc(F)cn2)c(C)n1 [Lot 5]
Particle size (D90 (μm)) (listed as 5): 39 μm

Cc1ncc(OC[C@@]2(c3cccc(F)c3)C[C@H]2C(=O)Nc2ccc(F)cn2)c(C)n1 [Lot 6]
Particle size (D90 (μm)) (listed as 6): 23 μm

Cc1ncc(OC[C@@]2(c3cccc(F)c3)C[C@H]2C(=O)Nc2ccc(F)cn2)c(C)n1 [Lot 7]
Particle size (D90 (μm)) (listed as 7): 40 μm

Cc1ncc(OC[C@@]2(c3cccc(F)c3)C[C@H]2C(=O)Nc2ccc(F)cn2)c(C)n1 [Lot 8]
Particle size (D90 (μm)) (listed as 8): 35 μm

Cc1ncc(OC[C@@]2(c3cccc(F)c3)C[C@H]2C(=O)Nc2ccc(F)cn2)c(C)n1 [Lot 9]
Particle size (D90 (μm)) (listed as 9): 34 μm

Cc1ncc(OC[C@@]2(c3cccc(F)c3)C[C@H]2C(=O)Nc2ccc(F)cn2)c(C)n1 [Lot S1]
D90 (μm) (listed as S1): 98 μm

Cc1ncc(OC[C@@]2(c3cccc(F)c3)C[C@H]2C(=O)Nc2ccc(F)cn2)c(C)n1 [Lot S2]
D90 (μm) (listed as S2): 79 μm

Cc1ncc(OC[C@@]2(c3cccc(F)c3)C[C@H]2C(=O)Nc2ccc(F)cn2)c(C)n1 [Lot S3]
D90 (μm) (listed as S3): 64 μm

Cc1ncc(OC[C@@]2(c3cccc(F)c3)C[C@H]2C(=O)Nc2ccc(F)cn2)c(C)n1 [Lot S4]
D90 (μm) (listed as S4): 56 μm

Cc1ncc(OC[C@@]2(c3cccc(F)c3)C[C@H]2C(=O)Nc2ccc(F)cn2)c(C)n1 [Lot S5]
D90 (μm) (listed as S5): 110 μm

Cc1ncc(OC[C@@]2(c3cccc(F)c3)C[C@H]2C(=O)Nc2ccc(F)cn2)c(C)n1 [Lot S6]
D90 (μm) (listed as S6): 20 μm

Cc1ncc(OC[C@@]2(c3cccc(F)c3)C[C@H]2C(=O)Nc2ccc(F)cn2)c(C)n1 [lemborexant, (1R,2S)-2-(((2,4-dimethylpyrimidine-5-yl)oxy)methyl)-2-(3-fluorophenyl)-N-(5-fluoropyridin-2-yl)cyclopropanecarboxamide]
D90 (API used for the tablets of Example 4): 32 μm
